Source: US8236937B2, “Methods and compositions for the detection and isolation of ligands” (InDanio Bioscience Inc., priority 2005, dated 2012)

Key:
[1] = target: T1, GAL4-DHR96 (Drosophila hormone receptor 96) fusion protein (Drosophila melanogaster, UniProt Q24143); test: Ligand trap GFP reporter screen in transgenic Drosophila embryos (GAL4-DHR96, UAS-GFP); assay type: in vivo; details: 10^−5 molar vs control media, FIG. 7 panel A
T1 construct: expressed in transfected cells; host or cells: transgenic Drosophila embryos carrying GAL4-DHR96 and a UAS-GFP reporter
T1 sequence (Q24143 483-723 limits assumed): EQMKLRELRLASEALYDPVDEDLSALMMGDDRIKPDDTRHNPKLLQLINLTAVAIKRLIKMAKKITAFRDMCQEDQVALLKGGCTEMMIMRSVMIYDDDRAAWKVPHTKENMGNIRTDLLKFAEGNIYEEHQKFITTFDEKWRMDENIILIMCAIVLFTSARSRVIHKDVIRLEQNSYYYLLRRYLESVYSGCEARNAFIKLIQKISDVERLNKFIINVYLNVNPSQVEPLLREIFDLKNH
Source text: CITCO is a component of a small molecule library used to screen for novel DHR96 ligands.

[2] = system: fish glucocorticoid receptor (GR); details: agonist; cited from earlier work

SMILES | GFP reporter activation / ligand activity at DHR96 [1] | Transcriptional activity of fish GR in the presence of ligand [2]
Clc1ccc(-c2nc3sccn3c2/C=N/OCc2ccc(Cl)c(Cl)c2)cc1 [CITCO] | first example of a DHR96-specific ligand | –
C[C@]12CCC(=O)C=C1CC[C@@H]1[C@@H]2[C@@H](O)C[C@@]2(C)[C@H]1CC[C@]2(O)C(=O)CO [cortisol] | – | able to induce transcriptional activity
